# From US11814367B2, “Inhibitors of glycogen synthase 1 (GYS1) and methods of use thereof” (Maze Therapeutics, Inc., priority 2021, dated 2023)
# Assays:
# [1] = molecular target: hGYS1 enzyme (recombinant hGYS1/GN1 protein) (Homo sapiens (Human), UniProt P13807); experiment: GYS1 coupled enzyme assay (PK/LDH); format: biochemical; conditions: hGYS1/GN1 50 nM, UDP-Glucose 0.8 mM, G6P 1 mM; geometric mean of at least 2 runs
# [2] = tested on: hGYS1 enzyme / glycogen synthesis in HeLa cells; experiment: GYS1 cell based assay (glycogen synthesis, Glucose-glo); parameters: species or system human; conditions: 24 h incubation, 20 mM glucose, geometric mean of at least 2 runs
# Procedure, shortened: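 HeLa cells starved 24 h in medium containing only 1× Glutamax were plated onto compound in medium with 20 mM glucose (1% DMSO final) for 24 h, 37 °C, 5% CO2. Acid lysates were Tris-quenched, glucoamylase-digested (pH 5.3, 1 h, 37 °C) and read by Glucose-glo luminescence. IC50 came from Hill fits, as geometric mean of ≥2 runs.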
# [3] = molecular target: hGYS2 enzyme (recombinant hGYS2/GN1 protein) (Homo sapiens (Human), UniProt P54840); experiment: GYS2 coupled enzyme assay (PK/LDH); format: biochemical; conditions: geometric mean of at least 2 assay runs on separate days, read-out: Avg_IC50
# Procedure, shortened: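 Read-out: NADH loss at 340 nm, read each minute for 10 min, slope normalized to controls, duplicate % inhibition fit to Hill (0–100). Enzyme: 200 nM hGYS2/GN1; substrate 2 mM UDP-glucose plus 0.2% glycogen and 2 mM G6P; pH 7.5 Tris, 2.5% DMSO.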
# hGYS2 enzyme (recombinant hGYS2/GN1 protein), sequence (P54840 whole entry): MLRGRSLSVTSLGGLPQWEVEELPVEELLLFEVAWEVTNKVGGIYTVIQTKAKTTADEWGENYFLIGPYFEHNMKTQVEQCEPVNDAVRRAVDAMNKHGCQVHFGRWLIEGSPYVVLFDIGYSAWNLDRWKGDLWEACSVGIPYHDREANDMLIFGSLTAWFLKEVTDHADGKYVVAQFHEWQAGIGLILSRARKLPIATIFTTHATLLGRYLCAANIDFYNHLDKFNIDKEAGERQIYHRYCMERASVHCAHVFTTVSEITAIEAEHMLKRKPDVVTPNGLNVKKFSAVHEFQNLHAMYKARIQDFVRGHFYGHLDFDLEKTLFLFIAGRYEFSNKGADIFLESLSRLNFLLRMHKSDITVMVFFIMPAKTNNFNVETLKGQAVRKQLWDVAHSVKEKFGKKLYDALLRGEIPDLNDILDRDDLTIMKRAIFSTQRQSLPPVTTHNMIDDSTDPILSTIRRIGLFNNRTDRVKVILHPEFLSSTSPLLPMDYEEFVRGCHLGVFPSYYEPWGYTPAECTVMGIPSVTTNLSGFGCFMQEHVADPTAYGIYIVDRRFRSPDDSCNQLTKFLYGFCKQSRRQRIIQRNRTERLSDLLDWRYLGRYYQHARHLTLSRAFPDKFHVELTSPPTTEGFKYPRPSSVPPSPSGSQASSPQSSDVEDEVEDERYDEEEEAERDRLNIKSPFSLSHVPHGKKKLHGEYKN
# hGYS2 enzyme (recombinant hGYS2/GN1 protein), sequence (P46976 whole entry partner): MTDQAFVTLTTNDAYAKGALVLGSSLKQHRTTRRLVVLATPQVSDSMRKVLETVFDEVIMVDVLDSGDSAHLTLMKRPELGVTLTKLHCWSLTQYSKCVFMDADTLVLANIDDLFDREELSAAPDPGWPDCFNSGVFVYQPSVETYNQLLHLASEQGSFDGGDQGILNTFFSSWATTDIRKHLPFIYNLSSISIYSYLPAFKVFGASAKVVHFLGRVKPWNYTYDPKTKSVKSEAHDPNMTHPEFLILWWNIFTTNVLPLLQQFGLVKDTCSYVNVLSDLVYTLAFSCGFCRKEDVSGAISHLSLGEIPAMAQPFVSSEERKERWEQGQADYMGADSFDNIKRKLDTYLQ
# hGYS1 enzyme (recombinant hGYS1/GN1 protein), sequence (P13807 whole entry): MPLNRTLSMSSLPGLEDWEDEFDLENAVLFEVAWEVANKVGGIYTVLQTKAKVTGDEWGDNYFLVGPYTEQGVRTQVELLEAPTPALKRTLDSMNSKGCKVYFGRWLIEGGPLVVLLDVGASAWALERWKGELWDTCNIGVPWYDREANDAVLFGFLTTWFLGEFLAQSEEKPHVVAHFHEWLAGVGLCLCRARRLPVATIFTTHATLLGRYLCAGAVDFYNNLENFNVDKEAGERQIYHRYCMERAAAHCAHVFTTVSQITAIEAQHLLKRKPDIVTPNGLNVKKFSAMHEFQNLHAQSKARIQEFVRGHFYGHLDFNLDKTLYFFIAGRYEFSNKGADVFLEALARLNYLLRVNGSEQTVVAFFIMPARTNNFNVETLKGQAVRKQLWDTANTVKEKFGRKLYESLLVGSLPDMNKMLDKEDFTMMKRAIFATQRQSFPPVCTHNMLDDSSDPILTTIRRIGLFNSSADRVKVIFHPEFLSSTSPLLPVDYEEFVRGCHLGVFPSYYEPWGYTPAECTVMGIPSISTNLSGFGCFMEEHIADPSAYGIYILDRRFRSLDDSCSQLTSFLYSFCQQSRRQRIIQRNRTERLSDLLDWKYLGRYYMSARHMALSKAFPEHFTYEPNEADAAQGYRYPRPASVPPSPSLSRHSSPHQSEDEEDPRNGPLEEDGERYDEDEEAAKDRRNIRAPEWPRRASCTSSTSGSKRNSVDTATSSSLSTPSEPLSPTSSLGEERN
# hGYS1 enzyme (recombinant hGYS1/GN1 protein), sequence (P46976 whole entry partner): as the sequence (P46976 whole entry partner) above
SMILES,IC50 [1],"IC50 ([2]; Homo sapiens, HeLa, 24 h)",IC50 [3],IC50 [2]
"Cc1ccnn1CC(=O)N1C[C@H](F)C[C@H]1C(=O)N[C@@H](c1ccccc1)c1ccc(C2CC2)c(F)n1 [Compound 724, (2S,4R)-N-[(S)-(5-cyclopropyl-6-fluoropyridin-2-yl)(phenyl)methyl]-4-fluoro-1-[2-(5-methyl-1H-pyrazol-1-yl)acetyl]pyrrolidine-2-carboxamide]",34 nM,630 nM,> 100000 nM,–
"CC(C)c1c(F)cc([C@@H](NC(=O)[C@@H]2C[C@@H](F)CN2C(=O)Cn2cnnn2)c2ccccc2)cc1F [Compound 669, (2S,4R)-N-[(S)-[3,5-difluoro-4-(propan-2-yl)phenyl](phenyl)methyl]-4-fluoro-1-[2-(1H-1,2,3,4-tetrazol-1-yl)acetyl]pyrrolidine-2-carboxamide]",40 nM,470 nM,> 100000 nM,–
"CC(C)c1ccc([C@@H](NC(=O)[C@@H]2C[C@@H](F)CN2C(=O)[C@@H](C)NC(=O)N(C)C)c2ccccc2)nc1F [Compound 406, (2S,4R)-1-[(2R)-2-[(dimethylcarbamoyl)amino]propanoyl]-4-fluoro-N-[(S)-[6-fluoro-5-(propan-2-yl)pyridin-2-yl](phenyl)methyl] pyrrolidine-2-carboxamide]",41 nM,760 nM,> 100000 nM,–
"CC(C(=O)N1C[C@H](F)C[C@H]1C(=O)N[C@@H](c1ccccc1)c1ccc(C2(C)CC2)c(F)c1)n1cnc2ccccc21 (single isomer, unassigned) [Compound 567, (2S,4R)-1-[(2R) or (2S)-2-(1H-1,3-benzodiazol-1-yl)propanoyl]-4-fluoro-N-[(S)-[3-fluoro-4-(1-methylcyclopropyl)phenyl](phenyl)methyl]pyrrolidine-2-carboxamide]",642 nM,–,> 100000 nM,11500 nM
"Cc1ccc2cc(CC(=O)N3C[C@H](F)C[C@H]3C(=O)N[C@@H](c3ccccc3)c3ccc(C4CC4)c(F)c3)ccc2n1 [Compound 480, (2S,4R)-N-[(S)-(4-cyclopropyl-3-fluorophenyl)(phenyl)methyl]-4-fluoro-1-[2-(2-methylquinolin-6-yl)acetyl]pyrrolidine-2-carboxamide]",79 nM,1120 nM,> 100000 nM,–
"CCn1cc(CC(=O)N2C[C@H](F)C[C@H]2C(=O)N[C@@H](c2ccccc2)c2ccc(C3CC3)c(F)n2)ccc1=O [Compound 736, (2S,4R)-N-[(S)-(5-cyclopropyl-6-fluoropyridin-2-yl)(phenyl)methyl]-1-[2-(1-ethyl-6-oxo-1,6-dihydropyridin-3-yl)acetyl]-4-fluoropyrrolidine-2-carboxamide]",20 nM,780 nM,> 100000 nM,–
"Cc1nccc(NCC(=O)N2C[C@H](F)C[C@H]2C(=O)N[C@@H](c2ccccc2)c2ccc(C3CC3)c(F)c2)n1 [Compound 472, (2S,4R)-N-[(S)-(4-cyclopropyl-3-fluorophenyl)(phenyl)methyl]-4-fluoro-1-{2-[(2-methylpyrimidin-4-yl)amino]acetyl} pyrrolidine-2-carboxamide]",22 nM,540 nM,> 100000 nM,–
"Cc1cnc(CC(=O)N2C[C@H](F)C[C@H]2C(=O)N[C@@H](c2ccccc2)c2ccc(C(C)C)cn2)o1 [Compound 271, (2S,4R)-4-fluoro-1-[2-(5-methyl-1,3-oxazol-2-yl)acetyl]-N-[(S)-phenyl[5-(propan-2-yl)pyridin-2-yl]methyl]pyrrolidine-2-carboxamide]",36 nM,870 nM,> 100000 nM,–
Cc1coc(CC(=O)N2C[C@H](F)C[C@H]2C(=O)N[C@@H](c2ccccc2)c2ccc(C(C)C)cn2)n1 [Compound 272],54 nM,710 nM,> 100000 nM,–
"CC(C)c1ccc([C@@H](NC(=O)[C@@H]2C[C@@H](F)CN2C(=O)C(C)n2ccnc2)c2ccccc2)cc1F (single isomer, unassigned) [Compound 771, (2S,4R)-4-fluoro-N-[(S)-[3-fluoro-4-(propan-2-yl)phenyl](phenyl)methyl]-1-[(2S) or (2R)-2-(1H-imidazol-1-yl)propanoyl]pyrrolidine-2-carboxamide]",33 nM,–,> 100000 nM,540 nM
"Cc1cn(CC(=O)N2C[C@H](F)C[C@H]2C(=O)N[C@@H](c2ccccc2)c2ccc(C(C)C)cc2)c(=O)[nH]c1=O [Compound 126, (2S,4R)-4-fluoro-1-[2-(5-methyl-2,4-dioxo-1,2,3,4-tetrahydropyrimidin-1-yl)acetyl]-N-[(S)-phenyl[4-(propan-2-yl)phenyl]methyl]pyrrolidine-2-carboxamide]",11 nM,170 nM,> 100000 nM,–
"CC(C)c1ccc([C@@H](NC(=O)[C@@H]2C[C@@H](F)CN2C(=O)Cc2cnn[nH]2)c2ccccc2)cc1C(F)F [Compound 679, (2S,4R)-N-[(S)-[3-(difluoromethyl)-4-(propan-2-yl)phenyl](phenyl)methyl]-4-fluoro-1-[2-(1H-1,2,3-triazol-5-yl)acetyl]pyrrolidine-2-carboxamide]",577 nM,8490 nM,> 100000 nM,–
"CC(C)c1ccc([C@@H](NC(=O)[C@@H]2C[C@@H](F)CN2C(=O)C(O)c2cnn[nH]2)c2ccccc2)cc1F (single isomer, unassigned) [Compound 773, (2S,4R)-4-fluoro-N -[(S)-[3-fluoro-4-(propan-2-yl)phenyl](phenyl)methyl]-1-[(2R) or (2S)-2-hydroxy-2-(1H-1,2,3-triazol-5-yl)acetyl]pyrrolidine-2-carboxamide]",124 nM,–,> 100000 nM,1200 nM
"CC1(c2ccc([C@@H](NC(=O)[C@@H]3C[C@@H](F)CN3C(=O)Cn3cnc4ccccc43)c3ccccc3)nc2F)CC1 [Compound 595, (2S,4R)-1-[2-(1H-1,3-benzodiazol-1-yl)acetyl]-4-fluoro-N-[(S)-[6-fluoro-5-(1-methylcyclopropyl)pyridin-2-yl](phenyl)methyl] pyrrolidine-2-carboxamide]",25 nM,460 nM,> 100000 nM,–
"COc1cccc(C(NC(=O)[C@@H]2C[C@@H](F)CN2C(=O)Cc2cnn[nH]2)c2ccc(C(C)C)c(F)n2)c1 (single isomer, unassigned) [Compound 651, (2S,4R)-4-fluoro-N-[(S) or (R)-[6-fluoro-5-(propan-2-yl)pyridin-2-yl](3-methoxyphenyl)methyl]-1-[2-(1H-1,2,3-triazol-5-yl)acetyl]pyrrolidine-2-carboxamide]",77 nM,1570 nM,> 100000 nM,–
"CC(C)c1ccc([C@@H](NC(=O)[C@@H]2C[C@@H](F)CN2C(=O)CNC(=O)N2CCN(CC(F)(F)F)CC2)c2ccccc2)nc1 [Compound 281, N-{2-[(2S,4R)-4-fluoro-2-{[(S)-phenyl[5-(propan-2-yl)pyridin-2-yl]methyl]carbamoyl}pyrrolidin-1-yl]-2-oxoethyl}-4-(2,2,2-trifluoroethyl)piperazine-1-carboxamide]",59 nM,1560 nM,> 100000 nM,–
"CC(C)c1ccc([C@@H](NC(=O)[C@@H]2C[C@@H](F)CN2C(=O)[C@@H](C)NC(=O)N(C)C)c2ccccc2)nc1 [Compound 274, (2S,4R)-1-[(2R)-2-[(dimethylcarbamoyl)amino]propanoyl]-4-fluoro-N-[(S)-phenyl[5-(propan-2-yl)pyridin-2-yl]methyl]pyrrolidine-2-carboxamide]",264 nM,3230 nM,> 100000 nM,–
"CC(C)c1ccc(C(NC(=O)[C@@H]2C[C@@H](F)CN2C(=O)Cc2cnn[nH]2)c2ccc3cn[nH]c3c2)nc1F (single isomer, unassigned) [Compound 632, (2S,4R)-4-fluoro-N-[(S) or (R)-[6-fluoro-5-(propan-2-yl)pyridin-2-yl](1H-indazol-6-yl)methyl]-1-[2-(1H-1,2,3-triazol-5-yl)acetyl]pyrrolidine-2-carboxamide]",13 nM,–,> 100000 nM,660 nM
"CC(C)c1ccc([C@@H](NC(=O)[C@@H]2C[C@@H](F)CN2C(=O)Cc2nn(C)c(=O)o2)c2ccccc2)nc1F [Compound 401, (2S,4R)-4-fluoro-N-[(S)-[6-fluoro-5-(propan-2-yl)pyridin-2-yl](phenyl)methyl]-1-[2-(4-methyl-5-oxo-4,5-dihydro-1,3,4-oxadiazol-2-yl)acetyl]pyrrolidine-2-carboxamide]",10 nM,290 nM,> 100000 nM,–
"CCN(CC)c1cnn(CC(=O)N2C[C@H](F)C[C@H]2C(=O)N[C@@H](c2ccccc2)c2ccc(C(C)C)cn2)n1 [Compound 278, (2S,4R)-1-{2-[4-(diethylamino)-2H-1,2,3-triazol-2-yl]acety}-4-fluoro-N-N-[(S)-phenyl[5-(propan-2-yl)pyridin-2-yl]methyl]pyrrolidine-2-carboxamide]",11 nM,230 nM,> 100000 nM,–
"CC(=O)N1C[C@H](C(=O)N2C[C@H](F)C[C@H]2C(=O)N[C@@H](c2ccccc2)c2ccc(C(C)C)cc2)[C@H]2OCC[C@H]21 [Compound 166, (2S,4R)-1-[(3aR,6S,6aR)-4-acetyl-hexahydro-2H-furo[3,2-b]pyrrole-6-carbonyl]-4-fluoro-N-[(S)-phenyl[4-(propan-2-yl)phenyl]methyl]pyrrolidine-2-carboxamide]",56 nM,780 nM,> 100000 nM,–
